Here are results for two compounds from publication PMC11811597, “Phenomics‐Based Discovery of Novel Orthosteric Choline Kinase Inhibitors” (Angewandte Chemie (International Ed. in English), 2025).

What is called Kd is a measure of binding affinity in units of concentration.

Where two headings read alike, the source gives them in different places.

One test has as its system U2OS cells. In words: Cell Painting Assay (CPA). Format: cell-based, human. The procedure: The described assay follows closely the method described by Bray et al.[15] Initially, 5 µL U2OS medium were added to each well of a 384-well plate (Revvity Phenoplate 384).
Subsequently, U2OS cell were seeded with a density of 1600 cells per well in 20 µL medium. The plate was incubated for 10 min at the ambient temperature, followed by an additional 4 h incubation (37 °C, 5% CO2). Compound treatment was performed with the Echo 520 acoustic dispenser (Beckman-Coulter) followed by incubation for 20 h (37 °C, 5% CO2). Subsequently, mitochondria were stained with Mito Tracker Deep Red (Thermo Fisher Scientific, Cat. No. M22426). The Mito Tracker Deep Red stock solution (1 mM) was diluted to a final concentration of 100 nM in prewarmed medium. The medium was removed from the plate leaving 10 µL residual volume and 25 µL of the Mito Tracker solution were added to each well. The plate was incubated for 30 min in darkness (37 °C, 5% CO2). To fix the cells […] of 18.5 % formaldehyde in PBS were added, resulting in a final formaldehyde concentration of […]. Subsequently, the plate was incubated for another 20 min in darkness (RT) and washed three times with 70 µL of PBS. (Agilent Washer Elx405). Cells were permeabilized by addition of 25 µL 0.1% Triton X-100 to each well, followed by 15 min incubation (RT) in darkness. The cells were washed three times with PBS leaving a final volume of 10 µL. To each well 25 µL of a staining solution were added, which contains 1% BSA, 5 µL/ml Phalloidin (Alexa594 conjugate, Thermo Fisher Scientific, A12381), 25 µg/ml Concanavalin A (Alexa488 conjugate, Thermo Fisher Scientific, Cat. No.
(Thermo Fisher Scientific, Cat. No. W11262) and 1.5 µM SYTO 14 solution (Thermo Fisher Scientific, Cat. No. S7576). The plate is incubated for 30 min (RT) in darkness and washed three times with 70 µl
PBS. After the final washing step, the PBS was not aspirated. The plates were sealed and centrifuged […]
The plates were prepared in triplicates with shifted layouts to reduce plate effects and imaged using a Micro XL High-Content Screening System (Molecular Devices) in 5 channels (DAPI: Ex350-400/ […]
The generated images were processed with the CellProfiler package (https://cellprofiler.org/, version 3.0.0) on a computing cluster of the Max Planck Society to extract 1716 cell features per microscope site. The data was then further aggregated as medians per well (9 sites -> 1 well), then over the three […]
Further analysis was performed with custom Python (https://www.python.org/) scripts using the Pandas (https://pandas.pydata.org/) and Dask (https://dask.org/) data processing libraries as well as the Scientific Python (https://scipy.org/) package (separate publication to follow).
From the total set of 1716 features, a subset of highly reproducible and robust features was determined using the procedure described by Woehrmann et al.[16] in the following way:
Two biological repeats of one plate containing reference compounds were analysed. For every feature, its full profile over each whole plate was calculated. If the profiles from the two repeats […]
set of 579 robust features out of the total of 1716 that was used for all further analyses.
The phenotypic profiles were compiled from the Z-scores of all individual cellular features, where the Z-score is a measure of how far away a data point is from a median value.
Specifically, Z-scores of test compounds were calculated relative to the Median of DMSO controls.
Thus, the Z-score of a test compound defines how many MADs (Median Absolute Deviations) the measured value is away from the Median of the controls as illustrated by the following formula:
z − score = […]
The phenotypic compound profile is then determined as the list of Z-scores of all features for one […]
(1 picture or pasted object on this page, not shown here)
In addition to the phenotypic profile, an induction value was determined for each compound as the […]
Induction [%] = number of features with abs. values > 3 […]

The target in the next test is CHKA (Homo sapiens, UniProt P35790). In words: Isothermal calorimetry (ITC). Format: binding. Also on record: host or cells: E. coli BL21(DE3). As to the method: mM NaCl, 5% glycerol, 500 mM imidazole, 0.5% TCEP, pH 7.5), the eluent was concentrated, and further purified by size exclusion chromatography using a HiLoad 16/600 Superdex S200 column (Cytiva) pre-equilibrated in Buffer C (20 mM HEPES, 150 mM NaCl, pH 7.5). The resulting protein purity was assessed by SDS-PAGE, and protein identity was confirmed by tryptic digest analysis. Protein concentration was determined to be 35.5 mg/mL, and was calculated using a theoretical molar extinction coefficient of 58830 M-1cm-1 as determined by ProtParam.[5]
Isothermal Calorimetry (ITC)
ITC experiments were performed in a buffer containing 20 mM HEPES pH 7.5 and 200 mM NaCl, using an VP-ITC microcalorimeter (MicroCal) at 15 °C. The protein concentration was 200 µM and compounds were tested at 20 µM. The titrations were conducted using an initial injection of 4 μL followed by further 29 injections of 8 μL each. Thermodynamic parameters were calculated using ΔG = ΔH − TΔS = −RT ln KB, where ΔG, ΔH, and ΔS are the changes in free energy, enthalpy, and entropy of binding, respectively. Single binding models were employed to fit the data. […]
(In general: Isothermal titration calorimetry measures the heat released or taken up as one component is titrated into another.)

CHKA, sequence (P35790 75-457 limits assumed): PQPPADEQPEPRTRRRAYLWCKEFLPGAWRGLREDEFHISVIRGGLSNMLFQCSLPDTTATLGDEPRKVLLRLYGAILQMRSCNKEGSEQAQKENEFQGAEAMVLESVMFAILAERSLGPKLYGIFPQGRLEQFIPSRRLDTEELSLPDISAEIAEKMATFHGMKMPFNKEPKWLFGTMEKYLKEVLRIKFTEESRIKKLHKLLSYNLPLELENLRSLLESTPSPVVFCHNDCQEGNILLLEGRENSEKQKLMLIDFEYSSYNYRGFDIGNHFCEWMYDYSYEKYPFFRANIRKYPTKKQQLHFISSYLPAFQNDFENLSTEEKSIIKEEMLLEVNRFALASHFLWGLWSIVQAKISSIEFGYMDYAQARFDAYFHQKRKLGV

As to `COc1cc2c(NC3CCN(C(C)C)CC3)nc(C3CCCCC3)nc2cc1OCCCN1CCCC1` [UNC0638], the “biosimilarity of UNC0638 and UNC0737 profiles (clustered together)” value in the test on U2OS cells is greater than 90%. In the test on U2OS cells (Conc 3.00 μM), the “Biol.Sim. (%)” value amounted to 91%, the “Cell Count (%)” value is 93% and the “Ind. (%) (% of parameters with significant changes)” value is reported as 73%. In the test on U2OS cells (Conc 5.00 μM), the “Cell Count (%)” value was 86% and the “Ind. (%) (% of parameters with significant changes)” value was 83%. Moreover, the “Biol.Sim. (%)” value in the test on U2OS cells (Conc 5.00 μM, morphological fingerprint similarity (no value printed for UNC0737 5 μM)) is 96%. For the same compound, the equilibrium dissociation constant (Kd) at CHKA (ITC, 15 °C, recombinant human CHKA, read-out: KD) is 270 nM.

With `COc1cc2c(N(C)C3CCN(C(C)C)CC3)nc(C3CCCCC3)nc2cc1OCCCN1CCCC1` [UNC0737], in the test on U2OS cells, the “biosimilarity of UNC0638 and UNC0737 profiles (clustered together)” value was greater than 90%. Further, in the test with U2OS cells (Conc 3.00 μM), the “Biol.Sim. (%)” value is 94%, the “Cell Count (%)” value was 86% and the “Ind. (%) (% of parameters with significant changes)” value was 83%. In the test on U2OS cells (Conc 5.00 μM), the “Cell Count (%)” value is recorded as 90% and the “Ind. (%) (% of parameters with significant changes)” value is reported as 86%. On CHKA, this compound returned a Kd of 59.3 nM.
